Tests used:
[1] = target: T1, EGFR TMLR (T790M/L858R), H1975 cell line (Homo sapiens, UniProt P00533, L858R/T790M); assay: HTRF Phospho EGFR TMLR Assay (Cellular); assay type: cell-based; conditions: H1975 cells, 16 hours compound incubation
T1 construct: H1975 cell line (CRL-5908; Lot BA70803) was obtained from American Type Culture Collection; host or cells: H1975
Procedure: HTRF Phospho EGFR TMLR Assay (Cellular)
H1975 cell line (CRL-5908; Lot BA70803) was obtained from American Type Culture Collection (Manassas, Va., USA). Cells were maintained at 37° C., 5% CO2 in complete Media RPMI 1640 without phenol red containing 0.3 mg/ml glutamine, 100 IU/ml penicillin, and […] streptomycin (Gibco, 15140-122) supplemented with 10% fetal bovine serum (FBS, Gibco, 10091-148). Compounds were diluted into starving medium RPMI 1640 Media (Gibco, 11835-030) without phenol red containing 0.3 mg/ml glutamine, 100 IU/ml penicillin, and […] streptomycin (Gibco).
Cells were cultured for 24 h in a 384-well plate (Greiner Bio-One, Nr. 784-080; 5000 cells/well) using 8 μl of complete medium/well. Then 4 μl/well of the 3× compound solution, containing a factor 3 dilution series of the compound or DMSO in starving medium, were added to the cells (final DMSO 0.33%). After 16 hours at 37° C., 5% CO2, 95% rel. humidity cells were lysed by adding to the compound mix 4 μl/well of the supplemented lysis buffer (Cis-bio, Phospho-EGFR HTRF kit, 64EG1PEH), followed by incubation for 30 min at room temperature with shaking (400 rpm). Then 4 μl of a mixture of anti-Phospho-EGFR Cryptate and of anti-Phospho-EGFR-d2 antibody solutions prepared in the detection buffer was added. The plates were then incubated for 4 h at room temperature before reading the fluorescence emission at 620 and 665 nm using an Envision reader (Perkin Elmer).

[2] = target: T2, EGFR TMLRCS (T790M/L858R/C797S), BaF3-TMLRCS cell line (Homo sapiens, UniProt P00533, C797S/L858R/T790M); assay: HTRF Phospho EGFR TMLRCS Assay (Cellular); assay type: cell-based; conditions: BaF3-TMLRCS cells, 4 hours compound incubation
T2 construct: host or cells: BaF3
Procedure: HTRF Phospho EGFR TMLRCS Assay (Cellular)
BaF3-TMLRCS cell line were obtained from Crownbio (San Diego, Calif., USA). Cells were maintained at 37° C., 5% CO2 in RPMI ATCC (Gibco 31870) +2mM Glutamine+0.5 μg/ml Puromycin supplemented with 10% fetal bovine serum (FBS) (Gibco).
Cells are transferred as above to Greiner Bio-One, Nr. 784-08 micro-titerplate at 20000 cells/well in 12.5 μl of growth medium/well after the plates had been pre-filled with 12.5 nl of DMSO solutions of the to be tested compounds (in dose response) or DMSO only. After spinning the plates at 300×g for 30 seconds the cells were incubated for 4 hours at 37 C, 5% CO2, 95% humidity. The cells were lysed by adding to the compound mix 4 μl/well of the supplemented lysis buffer (Cis-bio, Phospho-EGFR HTRF kit, 64EG1PEH), followed by incubation for 30 min at room temperature with shaking (400 rpm). The plates were then frozen and stored overnight at −80 C. On the next day and after thawing the plates, 4 μl of a mixture of anti-Phospho-EGFR Cryptate and of anti-Phospho-EGFR-d2 antibody solutions prepared in the supplied detection buffer was added to each well. The lidded plates were then incubated for 4 h at room temperature before reading the fluorescence emission at 616 and 665 nm using an Envision reader (Perkin Elmer). Data was analyzed in similar fashion as above using the normalized ratio of the 665 to 616 signals multiplied by 10000.

T1 sequence (P00533 25-1210 T790M/L858R): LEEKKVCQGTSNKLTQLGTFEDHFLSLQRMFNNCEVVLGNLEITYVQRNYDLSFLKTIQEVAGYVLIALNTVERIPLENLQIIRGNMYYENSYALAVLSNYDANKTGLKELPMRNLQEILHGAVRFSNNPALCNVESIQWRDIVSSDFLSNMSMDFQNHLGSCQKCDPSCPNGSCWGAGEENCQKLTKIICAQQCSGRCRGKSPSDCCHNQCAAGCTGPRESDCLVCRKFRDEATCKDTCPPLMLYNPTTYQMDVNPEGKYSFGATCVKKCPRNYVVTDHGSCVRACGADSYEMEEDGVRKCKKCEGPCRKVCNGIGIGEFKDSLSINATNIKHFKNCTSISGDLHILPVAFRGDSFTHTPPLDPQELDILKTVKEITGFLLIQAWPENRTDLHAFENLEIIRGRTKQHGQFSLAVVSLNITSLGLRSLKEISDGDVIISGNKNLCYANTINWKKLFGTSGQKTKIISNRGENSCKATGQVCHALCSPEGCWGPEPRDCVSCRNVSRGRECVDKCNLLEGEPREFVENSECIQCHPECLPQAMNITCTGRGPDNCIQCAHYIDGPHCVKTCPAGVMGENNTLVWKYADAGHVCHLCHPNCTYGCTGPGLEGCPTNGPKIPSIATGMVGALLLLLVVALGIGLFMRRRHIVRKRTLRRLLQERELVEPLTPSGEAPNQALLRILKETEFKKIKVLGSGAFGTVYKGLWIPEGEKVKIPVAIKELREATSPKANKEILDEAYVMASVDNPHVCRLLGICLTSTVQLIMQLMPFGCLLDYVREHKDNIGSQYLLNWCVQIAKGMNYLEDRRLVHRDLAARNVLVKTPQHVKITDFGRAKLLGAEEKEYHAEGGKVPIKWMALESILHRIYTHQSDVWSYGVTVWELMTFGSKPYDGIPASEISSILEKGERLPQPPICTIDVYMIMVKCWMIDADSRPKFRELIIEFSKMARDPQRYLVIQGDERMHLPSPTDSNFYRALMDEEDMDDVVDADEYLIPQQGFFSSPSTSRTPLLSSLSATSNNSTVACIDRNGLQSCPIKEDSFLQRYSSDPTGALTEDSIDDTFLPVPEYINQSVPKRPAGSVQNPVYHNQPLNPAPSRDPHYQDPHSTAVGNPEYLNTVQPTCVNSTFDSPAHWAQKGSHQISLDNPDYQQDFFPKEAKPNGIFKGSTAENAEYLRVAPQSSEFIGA
T2 sequence (P00533 25-1210 T790M/C797S/L858R): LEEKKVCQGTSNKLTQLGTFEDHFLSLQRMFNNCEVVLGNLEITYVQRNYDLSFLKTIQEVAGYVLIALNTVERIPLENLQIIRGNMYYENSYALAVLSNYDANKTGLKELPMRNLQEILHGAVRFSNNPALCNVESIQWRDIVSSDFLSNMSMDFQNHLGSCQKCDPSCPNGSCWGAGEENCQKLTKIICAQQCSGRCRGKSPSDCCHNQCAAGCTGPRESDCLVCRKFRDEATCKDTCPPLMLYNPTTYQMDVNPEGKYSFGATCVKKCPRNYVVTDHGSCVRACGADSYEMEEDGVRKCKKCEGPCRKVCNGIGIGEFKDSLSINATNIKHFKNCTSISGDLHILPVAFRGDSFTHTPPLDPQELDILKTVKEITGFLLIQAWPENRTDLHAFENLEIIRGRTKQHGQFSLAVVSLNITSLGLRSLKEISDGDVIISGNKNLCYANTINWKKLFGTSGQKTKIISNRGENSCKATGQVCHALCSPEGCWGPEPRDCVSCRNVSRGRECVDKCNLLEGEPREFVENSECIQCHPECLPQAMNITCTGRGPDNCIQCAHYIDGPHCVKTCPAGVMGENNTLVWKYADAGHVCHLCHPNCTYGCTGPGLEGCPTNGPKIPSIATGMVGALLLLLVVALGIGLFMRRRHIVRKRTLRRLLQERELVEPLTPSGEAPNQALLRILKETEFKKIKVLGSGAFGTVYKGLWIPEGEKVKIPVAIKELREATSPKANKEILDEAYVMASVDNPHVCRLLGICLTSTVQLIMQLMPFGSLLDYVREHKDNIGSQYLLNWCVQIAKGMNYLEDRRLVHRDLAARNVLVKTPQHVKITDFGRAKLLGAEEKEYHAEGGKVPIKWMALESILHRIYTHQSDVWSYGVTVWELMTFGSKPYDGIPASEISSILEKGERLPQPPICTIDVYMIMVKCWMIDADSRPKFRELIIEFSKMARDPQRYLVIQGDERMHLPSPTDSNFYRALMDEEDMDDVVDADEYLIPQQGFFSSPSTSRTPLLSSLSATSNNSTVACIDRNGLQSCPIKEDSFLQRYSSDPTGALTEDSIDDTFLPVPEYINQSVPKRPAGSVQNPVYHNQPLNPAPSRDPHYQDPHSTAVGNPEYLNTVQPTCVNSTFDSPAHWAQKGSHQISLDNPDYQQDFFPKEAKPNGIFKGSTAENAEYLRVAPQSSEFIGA

Compound	IC50 [1] [nM]	IC50 [2] [nM]
O=C(Nc1nccs1)C(c1ncn2c1CCC2)n1cc2c(Cl)cc(-c3ccc(N4CCOCC4)cc3)c(Cl)c2n1 (stereo not drawn) [Example 14, 2-(4,7-Dichloro-6-(4-morpholinophenyl)-2H-indazol-2-yl)-2-(6,7-dihydro-5H-pyrrolo[1,2-c]imidazol-1-yl)-N-(thiazol-2-yl)acetamide]	3	22
O=C(Nc1nccs1)C(c1ncn2c1CCC2)n1cc2c(Cl)cc(-c3ccc(N4CCOCC4)cc3)c(F)c2n1 (stereo not drawn) [Example 10, 2-(4-Chloro-7-fluoro-6-(4-morpholinophenyl)-2H-indazol-2-yl)-2-(6,7-dihydro-5H-pyrrolo[1,2-c]imidazol-1-yl)-N-(thiazol-2-yl)acetamide]	1	–
O=C(Nc1nccs1)C(c1ncn2c1CCC2)n1cc2c(F)cc(-c3ccc(N4CCOCC4)c(F)c3)cc2n1 (stereo not drawn) [Example 11, 2-(6,7-Dihydro-5H-pyrrolo[1,2-c]imidazol-1-yl)-2-(4-fluoro-6-(3-fluoro-4-morpholinophenyl)-2H-indazol-2-yl)-N-(thiazol-2-yl)acetamide]	1	–
O=C(Nc1nccs1)C(c1ncn2c1C[C@@H](F)C2)n1cc2c(F)cc(-c3ccc(N4CCOCC4)c(F)c3)cc2n1 (stereo partly drawn) [Example 5, 2-((R)-6-Fluoro-6,7-dihydro-5H-pyrrolo[1,2-c]imidazol-1-yl)-2-(4-fluoro-6-(3-fluoro-4-morpholinophenyl)-2H-indazol-2-yl)-N-(thiazol-2-yl)acetamide]	1	5

Now from value to compound:

IC50 [1] [nM]	IC50 [2] [nM]	Compound
1	7	COc1c(-c2ccc(N3CCOCC3)cc2)cc(Cl)c2cn(C(C(=O)Nc3nccs3)c3ncn4c3C[C@@H](F)C4)nc12 (mixture of isomers) [Example 19, 2-[4-Chloro-7-methoxy-6-(4-morpholin-4-ylphenyl)indazol-2-yl]-2-[rac-(6R)-6-fluoro-6,7-dihydro-5H-pyrrolo[1,2-c]imidazol-1-yl]-N-(1,3-thiazol-2-yl)acetamide]
2	–	O=C(Nc1nccs1)C(c1ncn2c1CCC2)n1cc2c(Cl)cc(-c3ccc(N4CCOCC4)c(F)c3)c(F)c2n1 (stereo not drawn) [Example 17, 2-(4-Chloro-7-fluoro-6-(3-fluoro-4-morpholinophenyl)-2H-indazol-2-yl)-2-(6,7-dihydro-5H-pyrrolo[1,2-c]imidazol-1-yl)-N-(thiazol-2-yl)acetamide]

— patent US20220315593A1, “EGFR INHIBITORS FOR THE TREATMENT OF CANCER” (Hoffmann-La Roche Inc., priority 2019, published 2022)
